Measured values from PubChem BioAssay (NCI).
“And” between values parts separate entries of the source, which are not always exact repeats. Identical values can stand only once.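 Following 48 hours of exposure in 96-well plates, responses at five concentrations were used to interpolate endpoints linearly. At the GI50, growth is halved. TGI: total growth inhibition.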

Tests used:
Experiment in all cases: NCI-60 cell line screen, 48 h
SK-MEL-2 melanoma = tested on: SK-MEL-2 melanoma
IGROV1 ovarian = tested on: IGROV1 ovarian
HCT-116 colon = tested on: HCT-116 colon
OVCAR-3 ovarian = tested on: OVCAR-3 ovarian
NCI-H460 lung = tested on: NCI-H460 lung
CCRF-CEM leukemia = tested on: CCRF-CEM leukemia
A498 renal = tested on: A498 renal
PC-3 prostate = tested on: PC-3 prostate
BT-549 breast = tested on: BT-549 breast
MDA-MB-231 breast = tested on: MDA-MB-231 breast

| Compound | GI50 (SK-MEL-2 melanoma) [µM] | TGI (SK-MEL-2 melanoma) | GI50 (IGROV1 ovarian) [µM] | TGI (IGROV1 ovarian) | GI50 (HCT-116 colon) [µM] | TGI (HCT-116 colon) [µM] | GI50 (OVCAR-3 ovarian) [µM] | TGI (OVCAR-3 ovarian) | GI50 (NCI-H460 lung) [µM] | TGI (NCI-H460 lung) | GI50 (CCRF-CEM leukemia) [µM] | TGI (CCRF-CEM leukemia) | TGI (A498 renal) | TGI (PC-3 prostate) [µM] | TGI (BT-549 breast) [µM] | TGI (MDA-MB-231 breast) [µM] | GI50 (PC-3 prostate) [µM] | GI50 (BT-549 breast) [µM] | GI50 (MDA-MB-231 breast) [µM] | GI50 (A498 renal) [µM] |
| --- | --- | --- | --- | --- | --- | --- | --- | --- | --- | --- | --- | --- | --- | --- | --- | --- | --- | --- | --- | --- |
| CC(C)(C)C([O-])=C1C(=O)c2ccccc2C1=O.CC(C)(C)C([O-])=C1C(=O)c2ccccc2C1=O.CC[O-].CC[O-].[Ti+4] | 25.8 | 85.2 µM | 70.4 | > 100 µM | 37.7 | > 100 | 27.9 | 91.4 µM | 32.1 | > 100 µM | 38.8 | > 100 µM |  |  |  |  |  |  |  |  |
| Cn1cc(NC(=O)c2cc(NC(=O)CCCCCC(=O)Nc3cc(C(=O)Nc4cc(C(=O)NCCC(=N)N)n(C)c4)n(C)c3)cn2C)cc1C(=O)NCCC(=N)N |  |  |  | > 100 µM |  | > 100 |  | > 100 µM |  | > 100 µM |  | > 100 µM | > 100 µM |  |  |  |  |  |  |  |
| Cc1ccc(S(=O)(=O)ON/N=C2/C3OC3[C@@H]3CCCC[C@H]23)cc1 (stereo partly drawn) |  | > 100 µM |  | > 100 µM |  |  |  | > 100 µM |  | > 100 µM |  | > 100 µM |  |  |  |  |  |  |  |  |
| CC[C@@]1(OC(=O)CCC(=O)O)C(=O)OCc2c1cc1n(c2=O)Cc2cc3ccccc3nc2-1 |  | 4.96 µM |  | 5.98 µM |  |  |  | 3.88 µM |  | 0.592 µM |  | 0.127 µM | 1.27 µM | > 100 | > 28.3 | > 27.6 |  |  |  |  |
| CC1=C(N2CC2)C(=O)c2nc3n(c2C1=O)CCC3O (stereo not drawn) |  | 1.4 µM |  | 1.2 µM |  | 1.52 |  | 0.763 µM |  | 0.324 µM |  | 13.4 µM | 0.521 µM |  | 0.0377 |  |  |  |  |  |
| COC1C(=O)CCC2(CO2)C1(O)C1(C)OC1CCC(C)C (stereo not drawn) |  |  |  | > 100 µM |  | > 100 |  | > 100 µM |  | > 100 µM |  | > 100 µM | > 100 µM | > 100 | > 100 | > 100 |  |  |  |  |
| Cn1nnnc1[N-]Cc1ccccc1.[Au+].c1ccc([PH+](c2ccccc2)c2ccccc2)cc1 | 2.98 | 9.45 µM | 2.43 | 8.16 µM | 3.88 | 13 | 2.47 | 5.2 µM | 19.1 | 65.7 µM | 0.752 | 3.95 µM |  |  |  |  |  |  |  |  |
| CCOC(=O)/C=C/c1ccc(C(=O)OCC)[nH]1 |  |  | 4.84 | > 100 µM | 4.56 | > 100 | 2.38 | 7.64 µM | 3.08 | 14.5 µM | 6.04 | > 100 µM | 12.1 µM | > 100 | > 100 | > 100 | 4.7 | 6.76 | 13.7 | 1.61 |
| CCc1cccc(C)c1NC(=O)CC1Sc2ccccc2NC1=O (stereo not drawn) |  | > 100 µM |  | > 100 µM |  | > 100 |  | > 100 µM |  | > 100 µM |  | > 100 µM | 72.8 µM |  |  |  |  |  |  |  |
| N#CC1C(N)=NNC1c1ccc(-c2ccc(-c3nc4ccccc4o3)cc2)o1 (stereo not drawn) | 37.5 | > 100 µM | 69.4 | > 100 µM | 5.91 | > 100 | 2.12 | 13.2 µM | 23.8 | > 100 µM |  |  |  | > 100 | 75.7 | 65.8 | 40.3 | 24 | 15.3 |  |
| CCCN(CCC)c1c([N+](=O)[O-])cc(S(N)(=O)=O)cc1[N+](=O)[O-] |  | 30.5 µM |  | 19.6 µM |  | 33.8 |  | 31.8 µM |  | 29.4 µM |  | 46.5 µM |  |  |  |  |  |  |  |  |
| CC(O)C(NC(=O)C(CS)NC(=O)C(CO)NC(=O)C(CCCCN)NC(=O)C(Cc1c[nH]c2ccccc12)NC(=O)C(Cc1ccc(O)cc1)NC(=O)C(CS)NC(=O)C(N)Cc1ccccc1)C(N)=O (stereo not drawn) | 22 | > 25 µM and 49.5 µM | 20.2 | > 25 µM and 44 µM | 32.9 | > 100 | 21.3 | > 25 µM and 50 µM |  | > 25 µM and 53.8 µM | 19.7 | > 25 µM and 43.3 µM | > 25 µM and 61.7 µM | > 25 |  | > 25 |  |  |  |  |
| COc1ccc(/C=[N+](\[O-])[C@H](COCc2ccccc2)c2ccccc2)cc1 |  | > 100 µM |  | > 100 µM |  | > 100 |  | > 100 µM |  | > 100 µM |  | > 100 µM | > 100 µM |  |  |  |  |  |  |  |
| Cc1ccc(S(=O)(=O)NCCN2c3nc4ccccc4cc3Sc3cc4ccccc4nc32)cc1 | > 37.4 | > 80.2 µM | 7.06 | > 100 µM | 7.11 | > 100 | > 26.8 | > 100 µM | > 100 | > 100 µM | > 100 | > 100 µM | > 84.9 µM |  | > 100 | > 100 |  | 17.4 | 4.61 | 24.4 |
| CC1=C2N3C[C@@H](n4c(=O)n(C)c(=O)n43)C23CCC1n1c(=O)n(C)c(=O)n13 |  |  |  | > 100 µM |  |  |  |  |  | > 100 µM |  | > 100 µM | > 100 µM |  |  |  |  |  |  |  |
| c1cc(-c2sc(-c3ccncc3)c(-c3ccncc3)c2-c2ccncc2)ccn1 |  | 48.1 µM |  | > 100 µM |  | 28.5 |  | 44.4 µM |  | 23.8 µM |  |  | 26.7 µM | 57.4 | 42 | 31.2 |  |  |  |  |
| COC(=O)/C(=N/NC(C)(C)C)C(C(=O)C=C(C)C)C(=O)C(=O)Nc1ccc(Cl)cc1C (stereo not drawn) |  | > 100 µM |  | > 100 µM |  | > 100 |  | > 100 µM |  | > 100 µM |  | > 100 µM | > 100 µM |  |  |  |  |  |  |  |
| CCCCCCCCCCCC(=O)C1=C(O)C(O)CCC1=O (stereo not drawn) |  | 25 µM |  | 82.6 µM |  | 38.5 |  | 38.3 µM |  | 44.4 µM |  | 40.6 µM | 43.2 µM |  |  |  |  |  |  |  |
| O=C(O)c1[nH]c(C(=O)O)c(CC(F)(F)C(F)(F)C(F)(F)F)c1CC(F)(F)C(F)(F)C(F)(F)F |  |  |  | > 100 µM |  | > 100 |  | > 100 µM |  | > 100 µM |  | > 100 µM | > 100 µM |  |  |  |  |  |  |  |
| O=C(N=Nc1c(O)[nH]c2ccccc12)c1ccccc1O |  | 63.6 µM |  |  |  | > 100 |  | > 100 µM |  | > 100 µM |  | > 100 µM | 94.6 µM |  |  |  |  |  |  |  |
| CC(SC1=CC(=O)c2c(O)ccc(O)c2C1=O)C(=O)O (stereo not drawn) |  | > 100 µM |  | > 68.6 µM |  | > 72.3 |  | 53.1 µM |  | > 100 µM |  | 14.8 µM | > 100 µM |  |  |  |  |  |  |  |
